Test system: 192522-019-R-J2-PDC complex tumor spheroid viability
Test: Anticancer human tumor 192522-019-R-J2-PDC patient-derived colon adenocarcinoma cell line growth inhibition [POLQ]
Details: for IC50: curve of first compound; for viability, T/C: stronger effect = lower value
Outline: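 Patient-derived tumour cells were co-cultured with HUVEC and mesenchymal stem cells as multicellular spheroids at 37 °C. They were treated with POLQ inhibitors (novobiocin, ART-558, RP6685) alone or combined with other agents. Top concentrations were at or near clinical Cmax (otherwise 10 microM; SN-38 at 1 microM), decreasing in half-log steps.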

[1] = second compound 0.0316 µM, first compound 0.0316 µM
[2] = second compound 0.0316 µM, first compound 0.1 µM
[3] = second compound 0.0316 µM, first compound 0.316 µM
[4] = second compound 0.0316 µM, first compound 1 µM
[5] = second compound 0.0316 µM, first compound 3.16 µM
[6] = second compound 0.0316 µM, first compound 10 µM
[7] = second compound 0.1 µM, first compound 0.0316 µM
[8] = second compound 0.1 µM, first compound 0.1 µM
[9] = second compound 0.1 µM, first compound 0.316 µM
[10] = second compound 0.1 µM, first compound 1 µM
[11] = second compound 0.1 µM, first compound 3.16 µM
[12] = second compound 0.1 µM, first compound 10 µM
[13] = second compound 0.316 µM, first compound 0.0316 µM
[14] = second compound 0.316 µM, first compound 0.1 µM
[15] = second compound 0.316 µM, first compound 0.316 µM
[16] = second compound 0.316 µM, first compound 1 µM
[17] = second compound 0.316 µM, first compound 3.16 µM
[18] = second compound 0.316 µM, first compound 10 µM
[19] = second compound 1 µM, first compound 0.0316 µM
[20] = second compound 1 µM, first compound 0.1 µM
[21] = second compound 1 µM, first compound 0.316 µM
[22] = second compound 1 µM, first compound 1 µM
[23] = second compound 1 µM, first compound 3.16 µM
[24] = second compound 1 µM, first compound 10 µM
[25] = second compound 3.16 µM, first compound 0.0316 µM
[26] = second compound 3.16 µM, first compound 0.1 µM
[27] = second compound 3.16 µM, first compound 0.316 µM
[28] = second compound 3.16 µM, first compound 1 µM
[29] = second compound 3.16 µM, first compound 3.16 µM
[30] = second compound 3.16 µM, first compound 10 µM
[31] = second compound 10 µM, first compound 0.0316 µM
[32] = second compound 10 µM, first compound 0.1 µM
[33] = second compound 10 µM, first compound 0.316 µM
[34] = second compound 10 µM, first compound 1 µM
[35] = second compound 10 µM, first compound 3.16 µM
[36] = second compound 10 µM, first compound 10 µM
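Further: spheroids exposed to drugs for seven days before reading.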
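Wherever viability, T/C is given: 100% = DMSO vehicle control viability in luminescence.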

In the case of C#Cc1c(F)ccc2cc(O)cc(-c3ncc4c(N5CC6CCC(C5)N6)nc(OCC56CCCN5CC(F)C6)nc4c3F)c12 (stereo not drawn) + Nc1ccc(C#CCN(C(=O)Cc2ncc(C(F)(F)F)cc2C(F)(F)F)c2ccc(F)cc2)nn1, the IC50 (second compound 0.0316 µM) is reported as > 10 µM, the IC50 (second compound 0.1 µM) is reported as > 10 µM and the IC50 (second compound 0.316 µM) is reported as > 10 µM. The IC50 (second compound 1 µM) was > 10 µM, the IC50 (second compound 3.16 µM) was > 10 µM and the IC50 (second compound 10 µM) was > 10 µM. It also gave a viability, T/C [1] of 93.8%, a viability, T/C [2] of 88.8% and a viability, T/C [3] of 78.2%. It also gave a viability, T/C [4] of 80.9%, a viability, T/C [5] of 67.9% and a viability, T/C [6] of 68.5%. The viability, T/C [7] was 92.8%, the viability, T/C [8] was 89.3% and the viability, T/C [9] was 72.7%. It also gave a viability, T/C [10] of 80.8%, a viability, T/C [11] of 74.5% and a viability, T/C [12] of 73.3%. It also gave a viability, T/C [13] of 88.8%, a viability, T/C [14] of 82.3% and a viability, T/C [15] of 75.3%. The viability, T/C [16] was 69.7%, the viability, T/C [17] was 68.2% and the viability, T/C [18] was 76.2%. For the same molecule, the viability, T/C [19] was 89.5%, the viability, T/C [20] was 76.2% and the viability, T/C [21] was 78.7%. For the same molecule, the viability, T/C [22] was 77.8%, the viability, T/C [23] was 78% and the viability, T/C [24] was 70.7%. It also gave a viability, T/C [25] of 97.9%, a viability, T/C [26] of 81.7% and a viability, T/C [27] of 71.7%. The viability, T/C [28] was 73.2%, the viability, T/C [29] was 78.4% and the viability, T/C [30] was 70.4%. For the same molecule, the viability, T/C [31] was 91.9%, the viability, T/C [32] was 79.5% and the viability, T/C [33] was 80.2%. The viability, T/C [34] was 77.2%, the viability, T/C [35] was 73.7% and the viability, T/C [36] was 79.8%.

With C=CC(=O)N1CCN(c2nc(=O)n(-c3c(C)ccnc3C(C)C)c3nc(-c4c(O)cccc4F)c(F)cc23)C(C)C1 (stereo not drawn) + Nc1ccc(C#CCN(C(=O)Cc2ncc(C(F)(F)F)cc2C(F)(F)F)c2ccc(F)cc2)nn1 the IC50 (second compound 0.0316 µM) was > 10 µM, the IC50 (second compound 0.1 µM) was > 10 µM and the IC50 (second compound 0.316 µM) was > 10 µM. The IC50 (second compound 1 µM) was > 10 µM, the IC50 (second compound 3.16 µM) was > 10 µM and the IC50 (second compound 10 µM) was > 10 µM. The viability, T/C [1] was 104%, the viability, T/C [2] was 99.7% and the viability, T/C [3] was 96.7%. The viability, T/C [4] was 111%, the viability, T/C [5] was 116% and the viability, T/C [6] was 97%. It also gave a viability, T/C [7] of 105%, a viability, T/C [8] of 97.2% and a viability, T/C [9] of 110%. The viability, T/C [10] was 112%, the viability, T/C [11] was 102% and the viability, T/C [12] was 98.3%. For the same molecule, the viability, T/C [13] was 108%, the viability, T/C [14] was 104% and the viability, T/C [15] was 103%. The viability, T/C [16] was 105%, the viability, T/C [17] was 116% and the viability, T/C [18] was 100%. For the same molecule, the viability, T/C [19] was 109%, the viability, T/C [20] was 102% and the viability, T/C [21] was 103%. The viability, T/C [22] was 108%, the viability, T/C [23] was 119% and the viability, T/C [24] was 99.3%. The viability, T/C [25] was 102%, the viability, T/C [26] was 98.8% and the viability, T/C [27] was 103%. For the same molecule, the viability, T/C [28] was 108%, the viability, T/C [29] was 115% and the viability, T/C [30] was 106%. It also gave a viability, T/C [31] of 104%, a viability, T/C [32] of 111% and a viability, T/C [33] of 102%. It also gave a viability, T/C [34] of 108%, a viability, T/C [35] of 107% and a viability, T/C [36] of 104%.

With CC(C)n1c(=O)n(C)c2cnc3cc(F)c(-c4ccc(OCCCN5CCCCC5)nc4)cc3c21 + Nc1ccc(C#CCN(C(=O)Cc2ncc(C(F)(F)F)cc2C(F)(F)F)c2ccc(F)cc2)nn1 the IC50 (second compound 0.0316 µM) was > 10 µM, the IC50 (second compound 0.1 µM) was > 10 µM and the IC50 (second compound 0.316 µM) was > 10 µM. The IC50 (second compound 1 µM) was > 10 µM, the IC50 (second compound 3.16 µM) was > 10 µM and the IC50 (second compound 10 µM) was > 10 µM. For the same molecule, the viability, T/C [1] was 104%, the viability, T/C [2] was 97.6% and the viability, T/C [3] was 110%. For the same molecule, the viability, T/C [4] was 118%, the viability, T/C [5] was 124% and the viability, T/C [6] was 101%. For the same molecule, the viability, T/C [7] was 100%, the viability, T/C [8] was 112% and the viability, T/C [9] was 119%. For the same molecule, the viability, T/C [10] was 134%, the viability, T/C [11] was 122% and the viability, T/C [12] was 94%. For the same molecule, the viability, T/C [13] was 113%, the viability, T/C [14] was 105% and the viability, T/C [15] was 110%. It also gave a viability, T/C [16] of 118%, a viability, T/C [17] of 123% and a viability, T/C [18] of 111%. For the same molecule, the viability, T/C [19] was 104%, the viability, T/C [20] was 118% and the viability, T/C [21] was 122%. It also gave a viability, T/C [22] of 138%, a viability, T/C [23] of 137% and a viability, T/C [24] of 111%. It also gave a viability, T/C [25] of 116%, a viability, T/C [26] of 104% and a viability, T/C [27] of 116%. For the same molecule, the viability, T/C [28] was 127%, the viability, T/C [29] was 120% and the viability, T/C [30] was 112%. For the same molecule, the viability, T/C [31] was 105%, the viability, T/C [32] was 104% and the viability, T/C [33] was 117%. The viability, T/C [34] was 127%, the viability, T/C [35] was 127% and the viability, T/C [36] was 114%.

Molecule CC1COCCN1c1cc(C2(S(C)(=N)=O)CC2)nc(-c2ccnc3[nH]ccc23)n1 (stereo not drawn) + Nc1ccc(C#CCN(C(=O)Cc2ncc(C(F)(F)F)cc2C(F)(F)F)c2ccc(F)cc2)nn1 has an IC50 (second compound 0.0316 µM) of 5.87 µM, an IC50 (second compound 0.1 µM) of 6.81 µM and an IC50 (second compound 0.316 µM) of 6 µM. The IC50 (second compound 1 µM) was 7 µM, the IC50 (second compound 3.16 µM) was 6.4 µM and the IC50 (second compound 10 µM) was 7.13 µM. It also gave a viability, T/C [1] of 101%, a viability, T/C [2] of 90.6% and a viability, T/C [3] of 102%. For the same molecule, the viability, T/C [4] was 93.7%, the viability, T/C [5] was 68% and the viability, T/C [6] was 34.5%. The viability, T/C [7] was 106%, the viability, T/C [8] was 98.6% and the viability, T/C [9] was 102%. For the same molecule, the viability, T/C [10] was 100%, the viability, T/C [11] was 69.6% and the viability, T/C [12] was 40.1%. The viability, T/C [13] was 114%, the viability, T/C [14] was 100% and the viability, T/C [15] was 99.4%. For the same molecule, the viability, T/C [16] was 90%, the viability, T/C [17] was 67.9% and the viability, T/C [18] was 35.5%. For the same molecule, the viability, T/C [19] was 103%, the viability, T/C [20] was 108% and the viability, T/C [21] was 100%. The viability, T/C [22] was 96%, the viability, T/C [23] was 77% and the viability, T/C [24] was 37.8%. It also gave a viability, T/C [25] of 99.2%, a viability, T/C [26] of 100% and a viability, T/C [27] of 101%. It also gave a viability, T/C [28] of 100%, a viability, T/C [29] of 68% and a viability, T/C [30] of 38.5%. For the same molecule, the viability, T/C [31] was 102%, the viability, T/C [32] was 101% and the viability, T/C [33] was 102%. The viability, T/C [34] was 105%, the viability, T/C [35] was 72.7% and the viability, T/C [36] was 40.5%.

Reference: PubChem BioAssay AID1963850 (Molecular Pharmacology Branch, DTP, NCI, 2024)
